According to patent US20250282768A1 (Janssen Pharmaceutica NV, priority 2022, published 2025):

The compounds below were run on p-IKKa levels in L363 (NIK translocated multiple myeloma) cells (assay: Assay 2: Effect of compounds on p-IKKa levels in L363 (NIK translocated multiple myeloma) cells). Settings: Homo sapiens, L-363, 6 h, read-out: Assay 2 IC50 (nM), p-IKKa (Ser 176/180) in BAFF stimulated L363 cells with MG132, 6 h; average if tested more than once.
Format: cell-based
Method in brief: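 L363 cells incubated overnight ± 250 ng/ml BAFF, then 6 h at 37 °C with compound (0.3% DMSO) ± 10 μM MG132. Lysates assayed for p-IKKa (Ser176/180) by AlphaLISA SureFire. IC50 from sigmoidal fit of % inhibition normalized to BAFF/MG132-stimulated and unstimulated controls.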

Row | Compound | IC50
1 | C[C@@H](Nc1nccc(-c2cccc(-c3cc([C@]4(O)CCN(C)C4=O)on3)n2)n1)C(=O)N1CCC(F)(F)C1 [Example 173, (R)-3-(3-(6-(2-(((R)-1-(3,3-Difluoropyrrolidin-1-yl)-1-oxopropan-2-yl)amino)pyrimidin-4-yl)pyridin-2-yl)isoxazol-5-yl)-3-hydroxy-1-methylpyrrolidin-2-one] | > 500 nM
2 | C[C@H](Nc1nccc(-c2cccc(-c3cc([C@]4(O)CCN(C)C4=O)on3)n2)n1)C(=O)N1CCC(F)(F)C1 [Example 174, (R)-3-(3-(6-(2-(((S)-1-(3,3-Difluoropyrrolidin-1-yl)-1-oxopropan-2-yl)amino)pyrimidin-4-yl)pyridin-2-yl)isoxazol-5-yl)-3-hydroxy-1-methylpyrrolidin-2-one] | 50 to 500 nM
3 | C[C@@H](Nc1nccc(-c2cccc(-c3cc([C@]4(O)CCN(C)C4=O)on3)n2)n1)C(=O)N(C)C [Example 175, (R)-2-((4-(6-(5-((R)-3-Hydroxy-1-methyl-2-oxopyrrolidin-3-yl)isoxazol-3-yl)pyridin-2-yl)pyrimidin-2-yl)amino)-N,N-dimethylpropanamide] | > 500 nM
4 | C[C@H](Nc1nccc(-c2cccc(-c3cc([C@]4(O)CCN(C)C4=O)on3)n2)n1)C(=O)N(C)C [Example 176, (S)-2-((4-(6-(5-((R)-3-Hydroxy-1-methyl-2-oxopyrrolidin-3-yl)isoxazol-3-yl)pyridin-2-yl)pyrimidin-2-yl)amino)-N,N-dimethylpropanamide] | 50 to 500 nM
5 | C[C@@H](Nc1nccc(-c2cccc(-c3cc([C@]4(O)CCN(C)C4=O)on3)n2)n1)C(=O)N1CC(C)(F)C1 [Example 177, (R)-3-(3-(6-(2-(((R)-1-(3-Fluoro-3-methylazetidin-1-yl)-1-oxopropan-2-yl)amino)pyrimidin-4-yl)pyridin-2-yl)isoxazol-5-yl)-3-hydroxy-1-methylpyrrolidin-2-one] | > 500 nM
6 | C[C@H](Nc1nccc(-c2cccc(-c3cc([C@]4(O)CCN(C)C4=O)on3)n2)n1)C(=O)N1CC(C)(F)C1 [Example 178, (R)-3-(3-(6-(2-(((S)-1-(3-Fluoro-3-methylazetidin-1-yl)-1-oxopropan-2-yl)amino)pyrimidin-4-yl)pyridin-2-yl)isoxazol-5-yl)-3-hydroxy-1-methylpyrrolidin-2-one] | 50 to 500 nM
7 | C[C@@H](Nc1nccc(-c2cccc(-c3cc([C@]4(O)CCN(C)C4=O)on3)n2)n1)C(=O)N1CCCCC1 [Example 179, (R)-3-Hydroxy-1-methyl-3-(3-(6-(2-(((R)-1-oxo-1-(piperidin-1-yl)propan-2-yl)amino)pyrimidin-4-yl)pyridin-2-yl)isoxazol-5-yl)pyrrolidin-2-one] | 50 to 500 nM
8 | C[C@H](Nc1nccc(-c2cccc(-c3cc([C@]4(O)CCN(C)C4=O)on3)n2)n1)C(=O)N1CCCCC1 [Example 180, (R)-3-Hydroxy-1-methyl-3-(3-(6-(2-(((S)-1-oxo-1-(piperidin-1-yl)propan-2-yl)amino)pyrimidin-4-yl)pyridin-2-yl)isoxazol-5-yl)pyrrolidin-2-one] | 50 to 500 nM
9 | C[C@H](Nc1nccc(-c2cccc(-c3cc([C@]4(O)CCN(C)C4=O)on3)n2)n1)C(=O)N(C)c1ccccc1 [Example 181, (S)-2-((4-(6-(5-((R)-3-Hydroxy-1-methyl-2-oxopyrrolidin-3-yl)isoxazol-3-yl)pyridin-2-yl)pyrimidin-2-yl)amino)-N-methyl-N-phenylpropanamide] | > 500 nM
10 | C[C@H](Nc1nccc(-c2cccc(-c3cc([C@]4(O)CCN(C)C4=O)on3)n2)n1)C(N)=O [Example 182, (S)-2-((4-(6-(5-((R)-3-Hydroxy-1-methyl-2-oxopyrrolidin-3-yl)isoxazol-3-yl)pyridin-2-yl)pyrimidin-2-yl)amino)propanamide] | 50 to 500 nM
11 | CNC(=O)[C@H](C)Nc1nccc(-c2cccc(-c3cc([C@]4(O)CCN(C)C4=O)on3)n2)n1 [Example 183, (S)-2-((4-(6-(5-((R)-3-Hydroxy-1-methyl-2-oxopyrrolidin-3-yl)isoxazol-3-yl)pyridin-2-yl)pyrimidin-2-yl)amino)-N-methylpropanamide] | 50 to 500 nM
12 | C[C@H](Nc1nccc(-c2cccc(-c3cc([C@]4(O)CCN(C)C4=O)on3)n2)n1)C(=O)N1CCCC1 [Example 184, (R)-3-Hydroxy-1-methyl-3-(3-(6-(2-(((S)-1-oxo-1-(pyrrolidin-1-yl)propan-2-yl)amino)pyrimidin-4-yl)pyridin-2-yl)isoxazol-5-yl)pyrrolidin-2-one] | 50 to 500 nM
13 | CN1CC[C@@](O)(c2cc(-c3cccc(-c4ccnc(NCC(=O)N5CC(F)(F)C5)n4)n3)no2)C1=O [Example 185, (R)-3-(3-(6-(2-((2-(3,3-Difluoroazetidin-1-yl)-2-oxoethyl)amino)pyrimidin-4-yl)pyridin-2-yl)isoxazol-5-yl)-3-hydroxy-1-methylpyrrolidin-2-one] | > 500 nM
14 | CN1CC[C@@](O)(c2cc(-c3cccc(-c4ccnc(Nc5ccon5)n4)n3)no2)C1=O [Example 186, (R)-3-Hydroxy-3-(3-(6-(2-(isoxazol-3-ylamino)pyrimidin-4-yl)pyridin-2-yl)isoxazol-5-yl)-1-methylpyrrolidin-2-one] | 50 to 500 nM
15 | Cc1c(Nc2nccc(-c3cccc(-c4cc([C@@]5(O)CCN(C)C5=O)on4)n3)n2)cnn1C1CCOCC1 [Example 187, (S)-3-Hydroxy-1-methyl-3-(3-(6-(2-((5-methyl-1-(tetrahydro-2H-pyran-4-yl)-1H-pyrazol-4-yl)amino)pyrimidin-4-yl)pyridin-2-yl)isoxazol-5-yl)pyrrolidin-2-one] | < 50 nM
16 | Cc1ncccc1Nc1nccc(-c2cccc(-n3cc([C@]4(O)CCN(C)C4=O)nn3)n2)n1 [Example 190, (R)-3-Hydroxy-1-methyl-3-(1-(6-(2-((2-methylpyridin-3-yl)amino)pyrimidin-4-yl)pyridin-2-yl)-1H-1,2,3-triazol-4-yl)pyrrolidin-2-one] | < 50 nM
17 | Cc1cc(Nc2nccc(-c3cccc(-n4cc([C@]5(O)CCN(C)C5=O)nn4)n3)n2)ccn1 [Example 191, (R)-3-Hydroxy-1-methyl-3-(1-(6-(2-((2-methylpyridin-4-yl)amino)pyrimidin-4-yl)pyridin-2-yl)-1H-1,2,3-triazol-4-yl)pyrrolidin-2-one] | < 50 nM
18 | CN1CC[C@@](O)(c2cc(-c3cccc(-c4ccnc(Nc5cc6n(n5)CC(C)(C)OC6)n4)n3)no2)C1=O [Example 192, (R)-3-(3-(6-(2-((6,6-Dimethyl-6,7-dihydro-4H-pyrazolo[5,1-c][1,4]oxazin-2-yl)amino)pyrimidin-4-yl)pyridin-2-yl)isoxazol-5-yl)-3-hydroxy-1-methylpyrrolidin-2-one] | < 50 nM
19 | [2H]c1cc(-c2cccc(-n3cc([C@]4(O)CCN(C)C4=O)nn3)n2)nc(Nc2ccn(C)n2)n1 [Example 193, (R)-3-Hydroxy-1-methyl-3-(1-(6-(2-((1-methyl-1H-pyrazol-3-yl)amino)pyrimidin-4-yl-6-d)pyridin-2-yl)-1H-1,2,3-triazol-4-yl)pyrrolidin-2-one] | < 50 nM
20 | CN1CC[C@@](O)(c2cc(-c3cccc(-c4ccnc(Nc5cnn6c5OCCC6)n4)n3)no2)C1=O [Example 194, (R)-3-(3-(6-(2-((6,7-Dihydro-5H-pyrazolo[5,1-b][1,3]oxazin-3-yl)amino)pyrimidin-4-yl)pyridin-2-yl)isoxazol-5-yl)-3-hydroxy-1-methylpyrrolidin-2-one] | < 50 nM
21 | Cc1cc(Nc2nccc(-c3cccc(-c4cc([C@]5(O)CCN(C)C5=O)on4)n3)n2)ccn1 [Example 196, (R)-3-Hydroxy-1-methyl-3-(3-(6-(2-((2-methylpyridin-4-yl)amino)pyrimidin-4-yl)pyridin-2-yl)isoxazol-5-yl)pyrrolidin-2-one] | < 50 nM
22 | Cc1ncccc1Nc1nccc(-c2cccc(-c3cc([C@]4(O)CCN(C)C4=O)on3)n2)n1 [Example 197, (R)-3-Hydroxy-1-methyl-3-(3-(6-(2-((2-methylpyridin-3-yl)amino)pyrimidin-4-yl)pyridin-2-yl)isoxazol-5-yl)pyrrolidin-2-one] | < 50 nM
23 | [2H]c1cc(-c2cccc(-c3cc([C@]4(O)CCN(C)C4=O)no3)n2)nc(Nc2ccn(C)n2)n1 [Example 200, (R)-3-Hydroxy-1-methyl-3-(5-(6-(2-((1-methyl-1H-pyrazol-3-yl)amino)pyrimidin-4-yl-6-d)pyridin-2-yl)isoxazol-3-yl)pyrrolidin-2-one] | < 50 nM
24 | CN1CC[C@@](O)(c2cc(-c3cccc(-c4ccnc(Nc5ccn(CCN)n5)n4)n3)no2)C1=O [Example 204, (R)-3-(3-(6-(2-((1-(2-Aminoethyl)-1H-pyrazol-3-yl)amino)pyrimidin-4-yl)pyridin-2-yl)isoxazol-5-yl)-3-hydroxy-1-methylpyrrolidin-2-one] | 50 to 500 nM
25 | CN1CC[C@@](O)(c2cn(-c3cccc(-c4ccnc(Nc5cn(C)nc5OCC(F)F)n4)n3)nn2)C1=O [Example 205, (R)-3-(1-(6-(2-((3-(2,2-Difluoroethoxy)-1-methyl-1H-pyrazol-4-yl)amino)pyrimidin-4-yl)pyridin-2-yl)-1H-1,2,3-triazol-4-yl)-3-hydroxy-1-methylpyrrolidin-2-one] | < 50 nM
26 | CN1CC[C@@](O)(c2cn(-c3cccc(-c4ccnc(Nc5cnn(C)c5)n4)n3)nn2)C1=O [Example 206, (R)-3-Hydroxy-1-methyl-3-(1-(6-(2-((1-methyl-1H-pyrazol-4-yl)amino)pyrimidin-4-yl)pyridin-2-yl)-1H-1,2,3-triazol-4-yl)pyrrolidin-2-one] | < 50 nM
27 | Cc1cc(-c2cccc(-c3cc([C@]4(O)CCN(C)C4=O)on3)n2)nc(Nc2cnn(C)c2)n1 [Example 207, (R)-3-Hydroxy-1-methyl-3-(3-(6-(6-methyl-2-((1-methyl-1H-pyrazol-4-yl)amino)pyrimidin-4-yl)pyridin-2-yl)isoxazol-5-yl)pyrrolidin-2-one] | > 500 nM
